Read-outs that look alike come from different tables or passages of the source.
Assays:
[1] = system: breast cancer MDA-MB-231; experiment: Cell viability, resazurin assay, MDA-MB-231; conditions: for IC50: Homo sapiens, MDA-MB-231, 24 h, read-out: MDA-MB-231 IC50
Description: (§3) Cells were maintained in a humidified incubator at 37 °C in 5% CO2, and cell viability was determined with the resazurin assay (Cayman Chemical, USA) after the incubation with compounds for indicated concentrations and times or DMSO as control.[72]

[2] = Parallel artificial membrane permeability assay (PAMPA); conditions: 50 μM, 25 ℃, 3 h, verapamil = 100%, ranitidine = 0%
Description: 1. Parallel artificial membrane permeability assay (PAMPA). […]
evolution instruments from pION Inc. In the PAMPA assay, a set of sandwich plates consists of a 96-well microtiter donor plate at the bottom and a 96-well filter acceptor plate on the top from […]
The stock solutions of samples were prepared at 10 mM concentrations in DMSO and stored at 0 ℃ before use. Before being added to a 96-well filter plate, the stock solution was diluted first with buffer to achieve a final sample concentration of 50 μM and to reduce the DMSO concentration below 1% (v/v). Each well of the 96-well donor plate was filled with a 200 μL diluted sample solution (50 μM), and the 96-well filter acceptor plate was then wetted with a 5 μL 2% w/v dioleyoylphosphatidylcholine (DOPC) in n-dodecane and subsequently placed on the donor wells.
Immediately, the acceptor wells were filled with 200 μL of buffer solution and the PAMPA plate sandwich was sealed and incubated at 25 ℃ for 3 h. After reaching the permeation time, the PAMPA plate sandwich was separated and transferred to 96-well UV plates respectively. The amounts of drugs in both the donor and acceptor compartments were measured by comparing the experimental spectra with the UV spectrum (220∼400 nm) obtained from reference standards.

[3] = system: washed human platelets; experiment: Collagen-induced platelet aggregation; assay type: cell-based; conditions: for IC50: Platelet, washed human platelets, collagen (5 μg/mL)
Description: (§1) The antiplatelet effects of the JUG derivatives were evaluated by measuring human platelet aggregation, which can be regulated by cell surface PDI. Platelet aggregation was induced with platelet activators U46619 (a mimetic of thromboxane A2) and collagen (binding to GPVI).
(§2) Washed human platelets were prepared from acid citrate dextrose-anticoagulated blood of healthy human volunteers as described previously.[73] The study was approved by the Institutional Review Board of Kaohsiung Medical University, and informed consent was obtained from every volunteer. Platelet aggregation was measured by using a turbidimetric aggregometer (Chrono-Log Co., USA) under stirring conditions (1200 rpm) at 37 °C. The extent of platelet aggregation was measured as the maximal increase of light transmission after the addition of the stimulators U46619 and collagen.[73] In the TCIPA assay, platelet aggregation was induced by A549 (1 × 10^4 cells/mL), MDA-MB-231 (1 × 10^2 cells/mL), or RPMI8226 (1 × 10^5 cells/mL) cancer cells in the presence of 0.375% plasma.[74]

[4] = biological target: platelet surface PDI (Homo sapiens, UniProt P07237); experiment: Cell surface PDI reductase activity on intact human platelets (Di-E-GSSG assay); conditions: read-out: Surface PDI IC50; intact human platelets, Di-E-GSSG, 5 μM DTT
platelet surface PDI, sequence (P07237 18-508): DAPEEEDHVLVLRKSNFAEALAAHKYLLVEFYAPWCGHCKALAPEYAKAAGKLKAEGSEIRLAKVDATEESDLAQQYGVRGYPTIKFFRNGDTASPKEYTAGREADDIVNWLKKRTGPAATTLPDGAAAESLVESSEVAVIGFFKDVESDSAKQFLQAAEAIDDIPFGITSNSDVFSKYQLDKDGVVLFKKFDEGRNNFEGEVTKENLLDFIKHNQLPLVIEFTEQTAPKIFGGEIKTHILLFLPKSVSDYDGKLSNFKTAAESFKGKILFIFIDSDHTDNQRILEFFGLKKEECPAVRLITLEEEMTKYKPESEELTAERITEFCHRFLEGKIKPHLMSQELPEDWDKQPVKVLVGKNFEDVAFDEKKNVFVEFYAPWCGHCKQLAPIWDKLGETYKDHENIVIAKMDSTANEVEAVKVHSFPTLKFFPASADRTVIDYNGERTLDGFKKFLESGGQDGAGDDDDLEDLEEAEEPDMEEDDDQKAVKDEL
Description: (§4) In this assay, a nonfluorescent substrate, dieosin glutathione disulfide (Di-E-GSSG), was reduced into a fluorescent product eosin-glutathione (E-GSH) by platelet surface PDI in the presence of 5 μM dithiothreitol (DTT).

[5] = system: washed human platelets; experiment: U46619-induced platelet aggregation; assay type: cell-based; conditions: for IC50: Platelet, washed human platelets, U46619 (1 μM)
Description: as §1, §2

[6] = system: lung cancer A549; experiment: Cell viability, resazurin assay, A549; conditions: for IC50: Homo sapiens, A549, 24 h, read-out: A549 IC50
Description: as §3

[7] = system: multiple myeloma RPMI8226; experiment: Cell viability, resazurin assay, RPMI8226; conditions: for IC50: Homo sapiens; for S.I. (EAhy926/RPMI8226), selectivity index: 24 h IC50 ratio
Description: as §3

[8] = biological target: purified human recombinant PDI (rPDI) (Homo sapiens, UniProt P07237); experiment: Recombinant PDI reductase activity (Di-E-GSSG assay); conditions: read-out: rPDI IC50; human recombinant PDI, Di-E-GSSG, 5 μM DTT
purified human recombinant PDI (rPDI), sequence (P07237 18-508): as above
Description: as §4

[9] = system: glioma U87; experiment: Cell viability, resazurin assay, U87; conditions: Homo sapiens, 24 h, read-out: U87 IC50
Description: as §3

[10] = system: human vascular endothelial EA.hy926 cells; experiment: Cell viability, resazurin assay, EA.hy926; conditions: EA.hy 926, 24 h, read-out: EAhy926 IC50
Description: as §3

[11] = RPMI-8226, 24 h, read-out: RPMI8226 IC50
[12] = concentrations up to 40 μM, unpublished data

| Compound | IC50 [1] [µM] | Permeability (%) [2] [%] | IC50 [3] [µM] | IC50 [4] [µM] | IC50 [5] [µM] | IC50 [6] [µM] | IC50 [7, 11] [µM] | IC50 [8] [µM] | IC50 [9] [µM] | IC50 [10] [µM] | S.I. (EAhy926/RPMI8226), selectivity index [7] | IC50 ([7]; RPMI-8226, 72 h, read-out: RPMI8226 IC50, 72 h) [µM] | effect on cell viability of MDA-MB-231 ([1]; unpublished data) | effect on collagen-induced platelet aggregation [3, 12] | effect on U46619-induced platelet aggregation [5, 12] | effect on cell viability of A549 ([6]; unpublished data) | effect on cell viability of RPMI8226 ([7]; unpublished data) |
| --- | --- | --- | --- | --- | --- | --- | --- | --- | --- | --- | --- | --- | --- | --- | --- | --- | --- |
| O=C1C=C(SC[C@H]2OC(O)[C@H](O)[C@@H](O)[C@@H]2O)C(=O)c2c(O)cccc21 (mixture of isomers) [Compound 19, 2-(6-Deoxy-6-thio-D-glucose)-8-hydroxynaphthalene-1,4-dione] | > 100 | -0.96 | > 50 | 1.17 ± 0.38 | > 50 | > 100 | > 20 | 3.7 ± 1.22 | > 20 |  |  |  |  |  |  |  |  |
| COc1ccc(N2C(=O)/C(=C\c3ccc([N+](=O)[O-])s3)SC2=S)cc1 [CCF642, reference compound] | 6.42 ± 0.29 |  |  |  |  | 13 ± 0.29 | 8.77 ± 0.29 |  | > 20 | 5.57 ± 0.25 | 0.64 |  |  |  |  |  |  |
| COc1ccc(SC2=CC(=O)c3cccc(O)c3C2=O)cc1 [Compound 8, 2-((4-Methoxyphenyl)thio)-8-hydroxynaphthalene-1,4-dione] | 6.63 ± 0.93 | 80.43 | 0.29 ± 0.06 | 1.37 ± 0.23 | 1.52 ± 0.08 | 14.9 ± 0.43 | 4.7 ± 0.08 | 1.44 ± 0.08 | 16.8 ± 0.62 | 13.9 ± 1.17 | 3.0 |  |  |  |  |  |  |
| COc1ccccc1SC1=CC(=O)c2cccc(O)c2C1=O [Compound 10, 2-((2-Methoxyphenyl)thio)-8-hydroxynaphthalene-1,4-dione] | > 100 | 28.4 | 0.71 ± 0.03 | 0.79 ± 0.26 | 2.66 ± 0.42 | 17.3 ± 0.9 | > 20 | 1.34 ± 0.12 | > 20 |  |  |  |  |  |  |  |  |
| O=C1C=C(Sc2ccc(O)cc2)C(=O)c2c(O)cccc21 [Compound 14, 2-((4-Hydroxyphenyl)thio)-8-hydroxynaphthalene-1,4-dione] | 6.92 ± 1.1 |  | 0.75 ± 0.14 | 0.77 ± 0.2 | 1.3 ± 0.35 | 16.1 ± 0.27 | 0.58 ± 0.03 | 1.5 ± 0.25 | 6.4 ± 0.12 | 5.69 ± 0.16 | 9.8 |  |  |  |  |  |  |
| CCCCCSC1=CC(=O)c2cccc(O)c2C1=O [Compound 16, 2-(Pentylthio)-8-hydroxynaphthalene-1,4-dione] | 10.7 ± 1.26 | 91.9 | 2.57 ± 0.5 | 0.88 ± 0.12 | 7.13 ± 1.82 | > 50 | 1.88 ± 0.08 |  | > 20 | > 20 | >10.6 |  |  |  |  |  |  |
| CN(C)C1=CC(=O)c2cccc(O)c2C1=O [Compound 23, 2-(Dimethylamino)-8-hydroxynaphthalene-1,4-dione] | > 100 | 16.7 | > 20 | > 20 | > 20 | > 100 | > 20 |  | > 20 |  |  |  |  |  |  |  |  |
| CN(C)C1=CC(=O)c2c(O)cccc2C1=O [Compound 24, 3-(Dimethylamino)-8-hydroxynaphthalene-1,4-dione] | > 100 | 30.2 | 16 ± 2.11 | > 20 | > 20 | > 100 | > 20 |  | > 20 |  |  |  |  |  |  |  |  |
| O=C1C=C(O)C(=O)c2c(O)cccc21 [Compound 25, 2,8-Dihydroxynaphthalene-1,4-dione] | > 100 | 5.21 | > 20 | > 20 | > 20 | > 100 | > 20 |  | > 20 |  |  |  |  |  |  |  |  |
| O=C1C(O)=CC(=O)c2c(O)cccc21 [Compound 26, 3,8-Dihydroxynaphthalene-1,4-dione] | > 100 | 5.17 | > 20 | > 20 | > 20 | > 100 | > 20 |  | > 20 |  |  |  |  |  |  |  |  |
| COc1ccc(SC2=C(O)C(=O)c3c(O)cccc3C2=O)cc1 [Compound 27, 2,8-Dihydroxy-3-((4-methoxyphenyl)thio)naphthalene-1,4-dione] | > 100 | 1.08 | > 20 | > 20 | 13.7 ± 0.89 | > 20 | > 20 |  | > 20 | > 20 |  |  |  |  |  |  |  |
| COc1ccc(SC2=C(O)C(=O)c3cccc(O)c3C2=O)cc1 [Compound 28, 3,8-Dihydroxy-2-((4-methoxyphenyl)thio)naphthalene-1,4-dione] | > 100 | 9.28 | > 20 | > 20 | > 20 | > 100 | > 20 |  | > 20 |  |  |  |  |  |  |  |  |
| CNC(=C[N+](=O)[O-])NCCSCc1ccc(CN(C)C)o1 [Ranitidine, reference compound] |  | 0 |  |  |  |  |  |  |  |  |  |  |  |  |  |  |  |
| CC(C)C[C@H](NC(=O)[C@H](Cc1ccccc1)NC(=O)c1cnccn1)B(O)O [bortezomib, reference compound] | 0.46 ± 0.01 |  |  |  |  | 0.69 ± 0.2 | 5.24 ± 0.79 |  | 7.86 ± 1.23 | 0.09 ± 0.01 | 0.017 | 0.08 |  |  |  |  |  |
| CC(C)(C)CN(C(=O)CCl)C1CCS(=O)(=O)C1 (stereo not drawn) [sulfopin, reference compound] |  |  |  |  |  |  |  |  |  |  |  |  | no significant impacts | does not show any effect | does not show any effect | no significant impacts | no significant impacts |

— paper PMC10945480 (Journal of Medicinal Chemistry, 2024)
